Experimental data published in US7300927B2, “Method for treating or preventing Alzheimer's disease” (priority 1997, dated 2007).

Columns and labels:
SH-Sy5y cells = assay: Neuritic sprouting and neuronal differentiation in SH-Sy5y cells; format: cell-based
Source text: (§1) Neuritic sprouting and neuronal differentiation were induced in PNET2 and SH-Sy5y cells by insulin, PMA, or RA stimulation. […] Thus, expression of the immature or fetal forms of NTP are regulated by mechanisms and growth factors distinct from those involved in modulating expression of the 21 kD and 26 kD NTP molecules. Therefore, expression of fetal NTP molecules/genes can be mediated through the IRS-1 cascade, whereas expression of adult brain/AD-associated NTP genes can be regulated mainly through protein kinase C pathways.

PNET2 cells [1] = assay: Neuritic sprouting and neuronal differentiation in PNET2 cells; format: cell-based; conditions: for NTP species expression associated with neuritic growth/sprouting: PNET2 and SH-Sy5y cells (not separated); for neuritic sprouting and neuronal differentiation: PNET2 cells
Source text: as §1

mice = conditions: 13 month old mice, administered directly to the brains; cited from earlier work
PNET2 cells [2] = assay: Insulin stimulated differentiation and NTP expression in PNET2 cells; format: cell-based
PNET1 cells = assay: Insulin responsiveness, NTP modulation and signal transduction in PNET1 cells; format: cell-based
Source text: Insulin is an important mediator of growth and differentiation in CNS neurons.
Correspondingly, the insulin-stimulated association between PI3 kinase and phosphorylated IRS-1 was also impaired in PNET1 cells. In essence, impaired insulin-mediated tyrosyl phosphorylation of IRS-1 in PNET1 cells halted activation of the insulin signal transduction cascade, and subsequent events leading to modulated gene (NTP) expression. […] The results were confirmed by absent association between PI3 kinase and IRS-1-PY in PNET1 cells after insulin stimulation.

Compound | neuritic sprouting and neuronal differentiation (SH-Sy5y cells) | NTP species expression associated with neuritic growth/sprouting (PNET2 cells [1]) | neuritic sprouting and neuronal differentiation (PNET2 cells [1]) | animals showing a delay of about two months in any memory deficit (mice) | animals that never develop a memory deficit (mice) [%] | synthesis and steady state levels of all five NTP species (PNET2 cells [2]; following the transient increases) | levels of the 39 kD, 18 kD and 15 kD NTP species (PNET2 cells [2]; insulin stimulated differentiation) | phosphorylation of IRS-1, up-regulation of NTP, neuronal differentiation (PNET2 cells [2]; insulin stimulation) | induction of differentiation (PNET1 cells) | insulin modulation of NTP (PNET1 cells) | insulin receptor phosphorylation (PNET1 cells) | insulin-mediated tyrosyl phosphorylation of IRS-1 (PNET1 cells) | insulin-stimulated association between PI3 kinase and phosphorylated IRS-1 (PNET1 cells)
CC1=C(/C=C/C(C)=C/C=C/C(C)=C/C(=O)O)C(C)(C)CCC1 [RA] | induced | modulated expression of the 21 kD and 26 kD NTP species | induced | – | – | – | – | – | – | – | – | – | –
O=C(CCn1cnc2c(=O)[nH]cnc21)Nc1ccc(C(=O)[O-])cc1.[K+] [AIT-082] | – | – | – | about 50% | 50 | – | – | – | – | – | – | – | –
Insulin: Insulin, an important mediator of growth and differentiation in CNS neurons | induced | increased expression of the fetal brain and PNET-dominant forms of NTP (15 kD and 18 kD) | induced | – | – | sustained increases | rapid (within 10 minutes) but transient increases | responded to insulin stimulation with phosphorylation of IRS-1, up-regulation of NTP, and neuronal differentiation | failure of insulin to induce differentiation | absent insulin modulation of NTP | normal insulin receptor phosphorylation | impaired | also impaired
CCCCCCCCCCCCCC(=O)O[C@@H]1[C@@H](C)[C@@]2(O)[C@@H](C=C(CO)C[C@]3(O)C(=O)C(C)=C[C@@H]23)[C@@H]2C(C)(C)[C@]12OC(C)=O [PMA] | induced | modulated expression of the 21 kD and 26 kD NTP species | induced | – | – | – | – | – | – | – | – | – | –
